Results from ChEMBL document CHEMBL5252519, “Design strategies, structure activity relationship and mechanistic insights for purines as kinase inhibitors” (Eur J Med Chem, 2016).
Each block holds one compound with its values, some of them ahead of it.

What was measured:
[1] = biological target: Phosphatidylinositol 4,5-bisphosphate 3-kinase catalytic subunit alpha isoform (Homo sapiens, UniProt P42336); experiment: Inhibition of PI3K-p110alpha (unknown origin) incubated for 30 mins by fluorescence polarization assay
[2] = biological target: CDK9/Cyclin T (Homo sapiens, UniProt P50750); experiment: Inhibition of CDK9/Cyclin T (unknown origin) using (YSPTSPS)3 peptide as substrate incubated for 30 mins in presence of gamma[33P]ATP by digital imaging analysis; format: protein-complex assay
[3] = biological target: Tyrosine-protein kinase SYK (Homo sapiens, UniProt P43405); experiment: Inhibition of SYK (unknown origin) using biotinylated EDPDYEWPSA as substrate incubated for 30 mins in presence of 33P-ATP by Scintillation Proximity Assay
[4] = biological target: Cyclin-dependent kinase 2/cyclin A (Homo sapiens, UniProt P24941); experiment: Inhibition of human CDK2/cyclinA using histone H1 as substrate incubated for 30 mins in presence of gamma[32P]ATP by phosphoimaging analysis; format: protein-complex assay
[5] = biological target: Janus Kinase (JAK) (Homo sapiens, UniProt P52333+P23458+O60674+P29597); experiment: Inhibition of JAK (unknown origin); format: protein assay
[6] = system: MCF7; experiment: Cytotoxicity against human MCF7 cells incubated for 48 hrs by SRB assay; format: functional, cell-based; conditions: MCF7, 48 h
[7] = biological target: T1, Phosphatidylinositol 4,5-bisphosphate 3-kinase catalytic subunit delta isoform (Homo sapiens, UniProt O00329); experiment: Inhibition of PI3K-delta (unknown origin)
T1 sequence (O00329 whole entry): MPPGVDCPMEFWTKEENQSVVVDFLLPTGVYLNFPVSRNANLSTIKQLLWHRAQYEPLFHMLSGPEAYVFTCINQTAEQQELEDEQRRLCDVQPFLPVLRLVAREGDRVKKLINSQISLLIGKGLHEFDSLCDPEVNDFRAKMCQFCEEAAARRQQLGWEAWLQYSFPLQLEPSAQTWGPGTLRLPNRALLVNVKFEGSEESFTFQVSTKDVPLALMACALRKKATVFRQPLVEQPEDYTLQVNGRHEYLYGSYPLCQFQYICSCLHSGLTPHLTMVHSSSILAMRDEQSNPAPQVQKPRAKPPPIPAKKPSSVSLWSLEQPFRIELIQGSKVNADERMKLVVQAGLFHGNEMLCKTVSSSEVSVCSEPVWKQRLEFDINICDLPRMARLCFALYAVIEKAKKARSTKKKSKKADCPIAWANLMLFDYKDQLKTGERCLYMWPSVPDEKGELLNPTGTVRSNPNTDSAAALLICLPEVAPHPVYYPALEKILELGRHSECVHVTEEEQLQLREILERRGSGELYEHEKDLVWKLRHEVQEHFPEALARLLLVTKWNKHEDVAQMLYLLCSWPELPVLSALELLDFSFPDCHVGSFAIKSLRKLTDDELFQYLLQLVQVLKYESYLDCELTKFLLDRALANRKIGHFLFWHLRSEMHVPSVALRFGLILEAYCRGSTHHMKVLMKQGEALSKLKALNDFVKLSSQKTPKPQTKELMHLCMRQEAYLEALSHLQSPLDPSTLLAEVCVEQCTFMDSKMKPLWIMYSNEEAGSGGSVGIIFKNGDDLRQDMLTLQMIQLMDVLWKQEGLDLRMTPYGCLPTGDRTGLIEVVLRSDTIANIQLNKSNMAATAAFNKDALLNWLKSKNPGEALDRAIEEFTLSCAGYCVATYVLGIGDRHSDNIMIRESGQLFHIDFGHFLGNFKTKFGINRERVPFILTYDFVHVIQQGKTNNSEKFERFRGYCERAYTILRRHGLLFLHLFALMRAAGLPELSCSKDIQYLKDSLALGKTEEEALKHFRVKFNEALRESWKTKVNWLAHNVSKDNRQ

[8] = biological target: T1, Phosphatidylinositol 4,5-bisphosphate 3-kinase catalytic subunit delta isoform; experiment: Inhibition of human PI3K-delta using PIP2 as substrate in presence of gamma[32P]ATP
[9] = biological target: Cyclin-dependent kinase 2/cyclin E (Homo sapiens, UniProt P24941); experiment: Inhibition of CDK2/Cyclin E (unknown origin) using histone as substrate incubated for 30 mins in presence of gamma[33P]ATP by digital imaging analysis; format: protein-complex assay
[10] = Antiproliferative activity against HUVEC cells assessed as cell growth inhibition measured after 72 hrs by crystal violet staining based analysis; format: toxicity; conditions: human
[11] = system: HMEC; experiment: Inhibition of cell migration in HMECs at 10 uM measured after 16 hrs by fluorescence based assay; format: functional; conditions: Homo sapiens
[12] = biological target: Serine/threonine-protein kinase mTOR (Homo sapiens, UniProt P42345); experiment: Inhibition of mTOR (unknown origin)

Chain of CDK9/Cyclin T (O60563 whole entry): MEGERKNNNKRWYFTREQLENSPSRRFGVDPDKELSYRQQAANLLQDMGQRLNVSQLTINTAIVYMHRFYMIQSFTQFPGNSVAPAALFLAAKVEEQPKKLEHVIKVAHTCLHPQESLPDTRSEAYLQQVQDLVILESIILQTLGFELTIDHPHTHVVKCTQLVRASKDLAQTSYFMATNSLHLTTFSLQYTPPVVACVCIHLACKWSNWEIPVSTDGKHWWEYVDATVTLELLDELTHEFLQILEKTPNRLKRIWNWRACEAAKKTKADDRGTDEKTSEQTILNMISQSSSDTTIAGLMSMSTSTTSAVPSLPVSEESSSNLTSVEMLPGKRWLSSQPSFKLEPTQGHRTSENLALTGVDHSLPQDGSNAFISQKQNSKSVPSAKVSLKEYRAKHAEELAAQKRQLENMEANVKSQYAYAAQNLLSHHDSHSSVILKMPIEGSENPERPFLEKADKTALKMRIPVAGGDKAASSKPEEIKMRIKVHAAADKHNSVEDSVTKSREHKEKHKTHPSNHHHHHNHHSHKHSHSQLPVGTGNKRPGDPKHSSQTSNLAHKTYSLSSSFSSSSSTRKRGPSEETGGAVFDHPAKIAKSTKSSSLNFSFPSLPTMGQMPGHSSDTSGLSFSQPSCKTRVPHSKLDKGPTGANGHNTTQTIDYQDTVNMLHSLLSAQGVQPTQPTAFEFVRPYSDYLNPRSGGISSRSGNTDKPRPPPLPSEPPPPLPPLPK
Chain of CDK9/Cyclin T (P50750 whole entry): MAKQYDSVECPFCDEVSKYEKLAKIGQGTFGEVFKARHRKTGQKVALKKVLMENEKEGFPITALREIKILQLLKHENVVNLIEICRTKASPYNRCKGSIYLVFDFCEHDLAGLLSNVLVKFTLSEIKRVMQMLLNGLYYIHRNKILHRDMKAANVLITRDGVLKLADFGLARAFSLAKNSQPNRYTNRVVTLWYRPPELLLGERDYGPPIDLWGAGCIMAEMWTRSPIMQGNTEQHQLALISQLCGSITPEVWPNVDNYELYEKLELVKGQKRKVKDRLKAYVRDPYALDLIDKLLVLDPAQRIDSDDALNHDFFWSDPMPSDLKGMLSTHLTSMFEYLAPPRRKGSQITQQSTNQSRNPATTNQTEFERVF
Chain of CDK9/Cyclin T (O60583 whole entry, further chain): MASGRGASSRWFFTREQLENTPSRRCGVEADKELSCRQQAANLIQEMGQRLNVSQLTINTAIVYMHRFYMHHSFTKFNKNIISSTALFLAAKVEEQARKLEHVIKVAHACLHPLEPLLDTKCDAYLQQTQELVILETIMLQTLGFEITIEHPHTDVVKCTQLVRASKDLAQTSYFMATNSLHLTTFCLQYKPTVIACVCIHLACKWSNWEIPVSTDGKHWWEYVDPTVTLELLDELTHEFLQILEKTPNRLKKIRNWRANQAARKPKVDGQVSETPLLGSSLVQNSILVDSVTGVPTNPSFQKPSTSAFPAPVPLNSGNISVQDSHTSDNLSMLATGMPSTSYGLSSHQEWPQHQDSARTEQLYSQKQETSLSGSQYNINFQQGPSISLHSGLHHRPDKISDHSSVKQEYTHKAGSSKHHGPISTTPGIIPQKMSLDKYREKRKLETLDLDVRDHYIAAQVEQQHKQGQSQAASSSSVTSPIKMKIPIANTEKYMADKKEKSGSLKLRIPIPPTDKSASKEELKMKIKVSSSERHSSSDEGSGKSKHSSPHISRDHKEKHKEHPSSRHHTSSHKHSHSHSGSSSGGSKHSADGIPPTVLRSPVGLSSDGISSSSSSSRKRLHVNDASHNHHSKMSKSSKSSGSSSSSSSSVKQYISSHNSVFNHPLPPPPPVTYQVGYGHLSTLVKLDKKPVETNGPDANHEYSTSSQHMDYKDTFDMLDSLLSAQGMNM
Chain of Phosphatidylinositol 4,5-bisphosphate 3-kinase catalytic subunit alpha isoform (P42336 whole entry, canonical isoform): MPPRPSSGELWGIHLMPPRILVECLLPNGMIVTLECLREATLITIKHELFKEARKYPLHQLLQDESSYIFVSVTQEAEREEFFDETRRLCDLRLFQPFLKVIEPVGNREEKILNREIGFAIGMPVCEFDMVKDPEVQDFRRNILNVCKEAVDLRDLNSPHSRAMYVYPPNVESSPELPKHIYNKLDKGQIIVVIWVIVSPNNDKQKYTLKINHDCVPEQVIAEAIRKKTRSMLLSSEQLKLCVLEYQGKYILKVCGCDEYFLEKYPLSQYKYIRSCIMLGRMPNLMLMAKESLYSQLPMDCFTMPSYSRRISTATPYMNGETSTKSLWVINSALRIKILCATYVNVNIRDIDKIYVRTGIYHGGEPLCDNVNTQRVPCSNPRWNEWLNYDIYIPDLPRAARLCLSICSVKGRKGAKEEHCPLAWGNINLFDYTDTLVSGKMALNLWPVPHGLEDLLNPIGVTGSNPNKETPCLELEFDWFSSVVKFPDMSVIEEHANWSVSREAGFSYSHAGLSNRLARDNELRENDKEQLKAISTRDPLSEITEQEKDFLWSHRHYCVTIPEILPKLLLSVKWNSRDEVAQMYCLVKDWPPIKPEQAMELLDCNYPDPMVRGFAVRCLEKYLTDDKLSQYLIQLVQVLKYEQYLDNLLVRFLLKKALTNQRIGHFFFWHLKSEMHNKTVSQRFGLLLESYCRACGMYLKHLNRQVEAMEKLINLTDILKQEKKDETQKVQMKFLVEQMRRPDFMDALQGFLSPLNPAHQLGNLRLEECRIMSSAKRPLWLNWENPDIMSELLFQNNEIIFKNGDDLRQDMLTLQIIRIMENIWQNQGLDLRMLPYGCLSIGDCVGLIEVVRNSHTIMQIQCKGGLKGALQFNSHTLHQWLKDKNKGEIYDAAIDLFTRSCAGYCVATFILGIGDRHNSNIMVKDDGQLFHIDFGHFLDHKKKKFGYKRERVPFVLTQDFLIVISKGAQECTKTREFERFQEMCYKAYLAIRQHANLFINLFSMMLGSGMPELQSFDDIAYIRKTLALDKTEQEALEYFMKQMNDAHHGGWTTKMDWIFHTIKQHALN

IC50 [1]: < 10 nM
Compound: Cc1nc(N)ncc1-c1nc(N2CCOCC2)c2nc(C(C)(C)C)n(CCO)c2n1

IC50 [2]: 7 nM
Compound: COc1cccc(CNc2nc(NC3CCCCC3N)nc3c2ncn3C(C)C)c1O (centres undefined)

IC50 [3]: 5 nM
Compound: CC(C)(C)Nc1nc(Nc2ccc(CC(=O)O)cc2)nc2[nH]cnc12

Compound: CC(C)[C@H](CO)Nc1nc(Nc2cccc(Cl)c2)c2ncn(C(C)C)c2n1 [PURVALANOLA]
IC50 [4]: < 50 nM

IC50 [3]: 5 nM
Compound: CC(C)Nc1nc(Nc2ccc(S(=O)(=O)N(C)C)cc2)nc2[nH]cnc12

IC50 [5]: < 1 nM
Compound: NC(=O)C1C2C=CC(C2)C1Nc1nc(Nc2cccc(S(N)(=O)=O)c2)nc2[nH]cnc12 (centres undefined)

IC50 [1]: < 10 nM
Compound: CC(C)(C)c1nc2c(N3CCOCC3)nc(-c3cccc4[nH]ccc34)nc2n1CCO

Compound: Cc1nn(-c2ccccc2)c2ncnc(Nc3ccc(C(=O)N4CCOCC4)cc3)c12
IC50 [6]: 14.9 µM

IC50 [5]: < 1 nM
Compound: NC(=O)[C@@H]1[C@H](Nc2nc(Nc3cccc(S(N)(=O)=O)c3)nc3[nH]cnc23)[C@H]2C=C[C@@H]1C2

IC50 [7]: < 30 nM
Compound: OCCn1cnc2c(-c3cn[nH]c3)nc(N3CCOCC3)nc21

IC50 [5]: < 1 nM
Compound: c1nc2c(NC3CC4CCC3C4)nc(Nc3ccc(N4CCCCC4)cc3)nc2[nH]1 (centres undefined)

IC50 [8]: 12 nM
Compound: CCC(Nc1ncnc2[nH]cnc12)c1nc2cccc(C)c2c(=O)n1-c1cc(F)cc(F)c1 (centres undefined)

IC50 [2]: 6 nM
Compound: CCC(CO)Nc1nc(NCc2cc(C)ccc2O)c2ncn(C(C)C)c2n1 (centres undefined)

IC50 [2]: 9 nM
IC50 [9]: 20 nM
Compound: COc1cccc(CNc2nc(NC3CCC(N)CC3)nc3c2ncn3C(C)C)c1O (centres undefined)

IC50 [8]: 45 nM
Compound: CC[C@H](Nc1ncnc2[nH]cnc12)c1nc2cccc(Cl)c2c(=O)n1-c1cc(F)cc(F)c1

IC50 [5]: < 1 nM
Compound: CC(C)Oc1cccc(Nc2nc(NC3C4C=CC(C4)C3C(N)=O)c3nc[nH]c3n2)c1 (centres undefined)

Compound: CC[C@H](CO)Nc1nc(NCc2cccc(OC)c2O)c2ncn(C(C)C)c2n1
EC50 at 72 h [10]: 7120 nM
inhibition at 10 µM [11]: 54%

Compound: Cc1nn(-c2ccccc2)c2ncn(N)c(=O)c12
IC50 [6]: 89.2 µM

Compound: CC(=O)N1N=C(c2ccc(Nc3ncnc4c3c(C)nn4-c3ccccc3)cc2)CC1c1ccc(Cl)cc1 (centres undefined)
IC50 [6]: 14.9 µM

IC50 [4]: < 50 nM
Compound: CC(C)[C@H](CO)Nc1nc(Nc2ccc(Cl)c(N)c2)c2ncn(C(C)C)c2n1

IC50 [12]: 2.4 nM
Compound: O=C(Nc1ccc(-c2nc(C3=CCOCC3)c3cnn(CC(F)(F)F)c3n2)cc1)Nc1cccnc1

Compound: CC[C@@H](CO)Nc1nc(NCc2ccccc2O)c2ncn(C(C)C)c2n1
EC50 at 72 h [10]: 1590 nM

IC50 [7]: < 30 nM
Compound: CS(=O)(=O)N1CCN(CCn2cnc3c(-n4c(C(F)F)nc5ccccc54)nc(N4CCOCC4)nc32)CC1

Compound: CC(C)C(CO)Nc1nc(Nc2cccc(Cl)c2)c2ncn(C(C)C)c2n1 (centres undefined)
IC50 [4]: < 50 nM

IC50 [5]: < 1 nM
Compound: COc1cc(Nc2nc(NC3C4C=CC(C4)C3C(N)=O)c3nc[nH]c3n2)cc(OC)c1OC (centres undefined)

IC50 [3]: 5 nM
Compound: C/C=N/Nc1ccc(Nc2nc(NCC)c3nc[nH]c3n2)cc1

IC50 [4]: < 50 nM
Compound: CC(C)[C@H](CO)Nc1nc(Nc2ccc(Cl)c(C(=O)O)c2)c2ncn(C(C)C)c2n1

Compound: CC[C@@H](CO)Nc1nc(NCc2cccc(OC)c2O)c2ncn(C(C)C)c2n1
EC50 at 72 h [10]: 2850 nM
inhibition at 10 µM [11]: 14%

IC50 [2]: 8 nM
IC50 [9]: 20 nM
Compound: CC(C)n1cnc2c(NCc3cc(F)ccc3O)nc(NC3CCC(N)CC3)nc21 (centres undefined)

IC50 [8]: 26 nM
Compound: CCC(Nc1ncnc2[nH]cnc12)c1nc2cccc(Cl)c2c(=O)n1-c1c(F)cccc1F (centres undefined)
